{
  "source": "patent US8975290B2",
  "about": "“Methods and compositions for enhancing an immune response, blocking monocyte migration, amplifying vaccine immunity and inhibiting tumor growth and metastasis” (Colorado State University Research Foundation, priority 2013, dated 2015)",
  "key": {"[1]": {"conditions": "cited from earlier work"}, "[2]": {"system": "human monocyte cell line THP-1", "test": "Boyden chamber assay, human monocyte migration in response to a CCL2 (MCP-1) gradient", "type": "cell-based", "conditions": "dose dependent, FIG. 1 (Losartan), FIG. 3 (Ondansetron)", "procedure": "The Boyden chamber assay is based on a chamber of two medium-filled compartments separated by a microporous membrane. In general, cells are placed in the upper compartment and are allowed to migrate through the pores of the membrane into the lower compartment, in which chemotactic agents are present. After an appropriate incubation time, the membrane between the two compartments is fixed and stained, and the number of cells that have migrated to the lower side of the membrane is determined. Experiments using this assay were performed as described in Mitchell et al. (2012) Int. Immunopharmacol. 15: 357-363 to assess the migration of monocytes. […] A Boyden chamber assay was performed (as described in Mitchell et al. (2012) Int. Immunopharmacol, supra) to assess the migration of human monocytes (i.e., the human monocyte cell line THP-1) in response to a CCL2 (MCP-1) gradient and to assess the ability of Ondansetron to inhibit monocyte migration in vitro."}, "inflammatory monocytes": {"system": "inflammatory monocytes", "test": "Footpad inflammation-induced monocyte migration assay (flow cytometry of draining popliteal lymph nodes)", "type": "in vivo", "conditions": "mice, 24 h after vaccination, vs vaccine only", "procedure": "Footpad inflammation-induced monocyte migration assays were performed as previously described (Mitchell et al. (2012), J. Immunology 189: 5612-5621) to determine whether Ondansetron inhibits monocyte migration in vivo in mice. Briefly, two groups of mice (n=4 per group) were injected with 50 μl of liposomal vaccine adjuvant in one footpad. The first group of mice was treated by injection of 3 mg/kg Ondansetron administered IP at the time of footpad injection and the Ondansetron injections were repeated 12, 24, and 36 hours following footpad injection. […] The third group received neither the vaccine nor the Ondansetron. Inflammatory monocyte migration to the draining popliteal lymph nodes was assessed in all three groups of mice via flow cytometry (as described in Mitchell et al. (2012), J. Immunology, supra) 24 hours following vaccination.\nBriefly, two groups of mice (n=4 per group) were vaccinated in the right rear footpad. […] Inflammatory monocyte migration to the draining popliteal lymph nodes was assessed in all three groups of mice via flow cytometry (as described in Mitchell et al. (2012), J. Immunology, supra) 24 hours following vaccination."}, "dog monocytes": {"system": "dog monocytes", "test": "Boyden chamber assay, dog monocyte migration in response to a CCL2 (MCP-1) gradient", "type": "cell-based", "procedure": "The Boyden chamber assay is based on a chamber of two medium-filled compartments separated by a microporous membrane. In general, cells are placed in the upper compartment and are allowed to migrate through the pores of the membrane into the lower compartment, in which chemotactic agents are present. After an appropriate incubation time, the membrane between the two compartments is fixed and stained, and the number of cells that have migrated to the lower side of the membrane is determined. Experiments using this assay were performed as described in Mitchell et al. (2012) Int. Immunopharmacol. 15: 357-363 to assess the migration of monocytes."}, "spleen cells": {"system": "spleen cells", "test": "IFNγ secretion of spleen cells in response to ovalbumin restimulation (cellular immunity)", "type": "in vivo", "conditions": "vaccinated mice treated concurrently with Losartan; restimulated in vitro 72 hours with 5 μg/ml ovalbumin; vs vaccine only; p<0.05 (FIG. 11)", "procedure": "Two groups of mice were immunized as noted in Example 7 above. To determine whether cellular immunity was enhanced in the Losartan-treated mice, mice from both the first and second groups were euthanized, and their spleen cells were assayed to determine IFNγ secretion levels in response to ovalbumin restimulation. Splenectomies and restimulation assays for cellular immune responses were performed as previously described (Mitchell et al. (2012), J. Immunology, supra). Spleen cells were restimulated in vitro for 72 hours with 5 μg/ml ovalbumin protein."}, "ovalbumin": {"system": "ovalbumin", "test": "Anti-ovalbumin antibody titers after ovalbumin vaccination (humoral immunity)", "type": "in vivo", "conditions": "mice, boost at day 10, vs vaccine only", "procedure": "Briefly, two groups of mice (n=5) were vaccinated with 5 μg of ovalbumin. […] The second group of mice received no additional treatment following vaccination. Second vaccinations were repeated 10 days following the initial vaccinations.\nTo assess the effects of Ondansetron on humoral immunity, mice were treated with Ondansetron at the time of vaccination. Briefly, two groups of mice (n=4 per group) were vaccinated subcutaneously with 1 μg of ovalbumin in a liposomal adjuvant. The first group of mice received 3 mg/kg Ondansetron via i.p. injection at the time of vaccination, and at 12, 24, and 36 hours following vaccination. The second group of mice received no additional treatment following vaccination. A third group of mice received neither the vaccine nor the Ondansetron. Second vaccinations were repeated for the first two groups of mice 10 days following the initial vaccinations, and second Ondansetron treatments were repeated for the groups as described for the first cycle of vaccination."}, "monocytes": {"system": "monocytes", "test": "Boyden chamber assay on blood samples of Losartan-treated dogs", "type": "in vivo"}, "A20-HA tumors": {"system": "A20-HA tumors", "test": "A20 mouse B-cell lymphoma model, tumor vaccine responses", "type": "in vivo, mice", "procedure": "The A20 mouse B-cell lymphoma model was used to assess the effects of Ondansetron on tumor vaccine responses. Briefly, two groups of mice (n=5 per group) with established d3 A20-HA tumors (i.e., tumors expressing HA) were vaccinated weekly for 3 weeks with HA antigen (1 μg per mouse in liposome adjuvant), either without or with concurrently administered ondansetron (3 mg/kg i.p., administered 4 times at 12 h intervals). A third group of mice received neither the HA nor the Ondansetron. Tumor measurements were made using calipers every 2-3 days. Mice were sacrificed when their tumors reached a diameter of 1.5 cm.\nLabeled anti-CD11b antibodies were used to quantitate the numbers of infiltrating CD11b+ monocyte/macrophages in the tumor tissues."}, "[3]": {"conditions": "Table 2, Comparison of ARB Pharmacokinetics"}},
  "note": "Read-outs that look alike come from different tables or passages of the source.",
  "data": [
    {"smiles": "CCOc1nc2cccc(C(=O)O)c2n1Cc1ccc(-c2ccccc2-c2nnn[nH]2)cc1", "note": "[Candesartan]", "values": [
      {"measurement": "Bioavailability", "setting": "[1]; [3]", "result": 15, "unit": "%"},
      {"measurement": "Biological Half-Life", "setting": "[1]; [3]", "result": 9, "unit": "hours"}
    ]},
    {"smiles": "CCCCC1=NC2(CCCC2)C(=O)N1Cc1ccc(-c2ccccc2-c2nnn[nH]2)cc1", "note": "[Irbesartan]", "values": [
      {"measurement": "Biological Half-Life", "setting": "[1]; [3]", "result": "11-15 hours"}
    ]},
    {"smiles": "CCCCc1nc(Cl)c(CO)n1Cc1ccc(-c2ccccc2-c2nn[nH]n2)cc1", "note": "[Losartan]", "values": [
      {"measurement": "human monocyte migration (THP-1) in vitro", "setting": "[2]", "result": "potently blocked human monocyte migration (THP-1) in vitro in a dose dependent manner"},
      {"measurement": "migration of inflammatory monocytes to the draining lymph nodes", "setting": "inflammatory monocytes; 30 mg/kg Losartan at injection and 12 h after, p<0.05 (FIG. 6)", "result": "significantly reduced"},
      {"measurement": "canine monocyte migration in vitro", "setting": "dog monocytes; CCL2 (MCP-1) gradient, dose dependent, FIG. 2", "result": "potently blocked canine monocyte migration in vitro in a dose dependent manner"},
      {"measurement": "canine monocyte migration in the presence of MCP-1", "setting": "dog monocytes; concentrations of 1 μg/ml and 10 μg/ml", "result": "blocked canine monocyte migration even in the presence of MCP-1"},
      {"measurement": "IFNγ production by spleen cells", "setting": "spleen cells", "result": "produced significantly more IFNγ"},
      {"measurement": "anti-ovalbumin antibody titers", "setting": "ovalbumin; 5 μg ovalbumin, 30 mg/kg Losartan at vaccination and 12, 24, 36 h after, p<0.05 (FIG. 9)", "result": "significantly higher anti-ovalbumin antibody titers"},
      {"measurement": "monocyte migration in blood samples after treatment", "setting": "monocytes; 3 dogs with cancer, 2 mg/kg/day for two weeks, pooled data, FIG. 8", "result": "Monocyte migration was inhibited"},
      {"measurement": "monocyte migration in blood samples after treatment", "setting": "monocytes; healthy dogs, 2 mg/kg/day for 48 hours, vs before treatment, FIG. 7", "result": "significantly inhibited"}
    ]},
    {"smiles": "CCCc1nc(C(C)(C)O)c(C(=O)O)n1Cc1ccc(-c2ccccc2-c2nnn[nH]2)cc1", "note": "[Olmesartan]", "values": [
      {"measurement": "Bioavailability", "setting": "[1]; [3]", "result": 29, "unit": "%"},
      {"measurement": "Biological Half-Life", "setting": "[1]; [3]", "result": "14-16 hours"}
    ]},
    {"smiles": "Cc1nccn1CC1CCc2c(c3ccccc3n2C)C1=O", "note": "(centres unmarked) [Ondansetron]", "values": [
      {"measurement": "human monocyte migration (THP-1) in vitro", "setting": "[2]", "result": "potently blocked THP-1 monocyte migration in vitro in a dose dependent manner"},
      {"measurement": "migration of inflammatory monocytes to the draining lymph nodes", "setting": "inflammatory monocytes; 3 mg/kg Ondansetron IP at footpad injection and 12, 24, 36 h after, p<0.001 (FIG. 4, 5)", "result": "significantly reduced"},
      {"measurement": "Biological Half-Life", "setting": "[1]; text b221", "result": "about 3.9 hours"},
      {"measurement": "infiltrating CD11b+ monocyte/macrophages in tumor tissues", "setting": "A20-HA tumors; immunohistochemistry, vaccine with Ondansetron vs vaccine alone, FIG. 13", "result": "markedly fewer monocyte/macrophages"},
      {"measurement": "tumor growth rates", "setting": "A20-HA tumors; mice with A20-HA tumors, HA vaccine weekly for 3 weeks with ondansetron 3 mg/kg i.p. 4 times at 12 h intervals, vs vaccine only, FIG. 12", "result": "significantly reduced"},
      {"measurement": "anti-ovalbumin antibody titers", "setting": "ovalbumin; 1 μg ovalbumin s.c. in liposomal adjuvant, 3 mg/kg Ondansetron i.p. at vaccination and 12, 24, 36 h after, p<0.05 (FIG. 10)", "result": "significantly higher anti-ovalbumin antibody titers"}
    ]},
    {"smiles": "CCCc1nc2c(C)cc(-c3nc4ccccc4n3C)cc2n1Cc1ccc(-c2ccccc2C(=O)O)cc1", "note": "[Telmisartan]", "values": [
      {"measurement": "Bioavailability", "setting": "[1]; [3]", "result": "42-58%"}
    ]}
  ]
}
